Assays:
Assay type in all cases: in vivo, human
[1] = tested on: panel of volunteers; experiment: Sensory testing for apple drink (panel, in-mouth and aftertaste attributes); set-up: key to Sweetness / Delayed Sweetness / Bitterness / Lingering Sweetness / Overall Off-Taste / Licorice Aftertaste / Bitterness Aftertaste / Mouth Coating: 10-point scale; normalized per attribute to average Reb M scores; conditions: for Bitterness / Delayed Sweetness / Global Flavor Intensity / Sweetness / Thickness/Body: in-mouth, average normalized score
Method: (§1) A panel of volunteers evaluated siamenoside I for in-mouth attributes (sweetness, delayed sweetness, sourness, bitterness, global flavor intensity, thickness/body, and astringence) and aftertaste (AT) attribtues (lingering sweetness, overall off-taste intensity, licorice off-tast, bitterness off-taste, and mouth coating) on a 10-point scale. Two replicate sessions were conducted, with a 20 minute break between sessions. There was a 90 second delay between samples within a session. Panelists evaluated all samples in a first session and evaluated the samples again a second time in a second session. Control samples of Rebaudioside M (Reb M) were evaluated during all sessions as a control. Mogroside V was also evaluated and sensory data for mogroside V is provided.
(§2) Data analysis was performed using 2-way analysis of variance (ANOVA) with interaction using Tukey's HSD test. The data was normalized for each attribute according to average scores for Reb M.
The average normalized in-mouth attributes for each sample of apple drink containing siamenoside I was evaluated below.
The average sweetness for each sample of apple drink containing siamenoside I was evaluated below.

[2] = tested on: panel of volunteers; experiment: Sensory testing for lemon-lime carbonated soft drink; set-up: key to Sweetness / Delayed Sweetness / Bitterness / Lingering Sweetness / Overall Off-Taste / Licorice Aftertaste / Bitterness Aftertaste: 10-point scale; scores normalized to average Reb M scores
Method: as §1, §2
A panel of volunteers evaluated the siamenoside I-containing lemon-lime carbonated soft drink for in-mouth attributes and aftertaste attributes according to the methods described in Example 1 above.
The average normalized in-mouth attributes for a sample of lemon-lime carbonated soft drink having […] was evaluated below.
The average normalized aftertaste attributes for a sample of lemon-lime carbonated soft drink having siamenoside I was evaluated below.

[3] = tested on: panel of volunteers; experiment: Sensory testing for sparkling orange beverage
Method: as §1, §2
A panel of volunteers evaluated a sparkling orange beverage containing siamenodie I for in-mouth attributes and aftertaste attributes according to the methods described in Example 1 above.
The average normalized in-mouth attributes for a sample of sparkling orange beverage containing siamenoside I was evaluated and the results are provided below.
The average normalized aftertaste attributes for a sample of sparkling orange beverage containing siamenoside I was evaluated and the results are provided below.

[4] = tested on: panel of volunteers; experiment: Sensory testing for vanilla milk; conditions: for Licorice Aftertaste / Lingering Sweetness / Mouth Coating / Overall Off-Taste: aftertaste
Method: as §1, §2
A panel of volunteers evaluated vanilla milk for in-mouth attributes and aftertaste attributes according to the methods described in Example 1 above.
The average normalized in-mouth attributes for each sample of vanilla milk was evaluated and the results are provided below.
The average normalized aftertaste attributes for each sample of vanilla milk containing siamenoside I was evaluated and the results are provided below.

[5] = tested on: panel of flavorists; experiment: Additional sensory testing for lemon-flavored (lemon-lime) beverage, flavorist panel; conditions: 600 ppm mogrosides, 0 to 10 scale, letter in parentheses = Duncan's test group; for Sweet Linger: aftertaste, after expectoration; for Bitterness / Mouthfeel/Thickness / Peak Sweetness / Upfront Sweetness: in-mouth
Method: (§3) A panel of flavorists at three locations evaluated lemon-lime beverage various mogrosides at a concentration of 600 ppm mogrosides for in-mouth attributes (peak sweetness, upfront sweetness, bitterness, and mouthfeel/thickness) and aftertaste attributes (sweet taste linger), on a 0 to 10 scale. The in-mouth attributes were evaluated while holding the sample in the mouth, while the aftertaste attributes were evaluated after expectoration.

[6] = tested on: panel of flavorists; experiment: Additional sensory testing for vanilla milk, flavorist panel; conditions: 400 ppm mogrosides, 0 to 10 scale, letter in parentheses = Duncan's test group; for Sweet Linger: aftertaste, after expectoration; for Bitterness / Mouthfeel/Thickness / Peak Sweetness / Upfront Sweetness: in-mouth
Method: as §3, with “vanilla milk containing” for “lemon-lime beverage”, “400” for “600”, “expectoration. The data was analyzed using Duncan's new multiple range test and the scores are provided in the data below in parentheses.” for “expectoration.”

[7] = tested on: expert panelists; experiment: Expert panelists' comparison of mogrosides with stevia; conditions: 'Examples 4 and 5', in words
[8] = 250 ppm (mogroside V 250 mg [sic]), aftertaste, 10-point scale
[9] = 250 ppm (mogroside V 250 mg [sic]), 10-point scale
[10] = 500 ppm (mogroside V 500 mg [sic]), aftertaste, 10-point scale
[11] = 500 ppm (mogroside V 500 mg [sic]), 10-point scale
[12] = 600 ppm (mogroside V 600 mg [sic]), aftertaste, average normalized score, 10-point scale
[13] = 600 ppm (mogroside V 600 mg [sic]), in-mouth, average normalized score, 10-point scale
[14] = orange sparkling beverage, in words
[15] = sparkling orange beverage, 250 ppm (mogroside V 250 mg [sic]), aftertaste, average normalized score, 10-point scale
[16] = sparkling orange beverage, 250 ppm (mogroside V 250 mg [sic]), in-mouth, average normalized score, 10-point scale
[17] = 200 ppm (mogroside V 200 mg [sic]), average normalized score, 10-point scale
[18] = 200 ppm (mogroside V 200 mg [sic]), in-mouth, average normalized score, 10-point scale
[19] = 400 ppm (mogroside V 400 mg [sic]), average normalized score, 10-point scale
[20] = 400 ppm (mogroside V 400 mg [sic]), in-mouth, average normalized score, 10-point scale
[21] = at both 200 ppm and 400 ppm, in words

## C[C@H](CC[C@@H](O[C@@H]1O[C@H](CO[C@@H]2O[C@H](CO)[C@@H](O)[C@H](O)[C@H]2O)[C@@H](O)[C@H](O)[C@H]1O[C@@H]1O[C@H](CO)[C@@H](O)[C@H](O)[C@H]1O)C(C)(C)O)[C@H]1CC[C@@]2(C)[C@@H]3CC=C4[C@@H](CC[C@H](O[C@@H]5O[C@H](CO)[C@@H](O)[C@H](O)[C@H]5O)C4(C)C)[C@]3(C)[C@H](O)C[C@]12C [siamenoside I]
[1]; [8]
  Bitterness Aftertaste: 1.3
  Licorice Aftertaste: 2.2
  Lingering Sweetness: 3.2
  Overall Off-Taste: 2.5
[1]; [9]
  Bitterness: 1.5
  Delayed Sweetness: 2.3
  Global Flavor Intensity: 3.5
  Sweetness: 4.0
  Thickness/Body: 1.2
[1]; [10]
  Licorice Aftertaste: 2.7
  Lingering Sweetness: 4.7
  Mouth Coating: 2.4
  Overall Off-Taste: 3.4
[1]; [11]
  Bitterness: 1.7
  Delayed Sweetness: 3.2
  Global Flavor Intensity: 4.4
  Sweetness: 5.3
  Thickness/Body: 1.6
[1]; in words
  global flavor intensity compared with mogroside V: higher global flavor intensity
  in-mouth and aftertaste profile compared with Reb M: comparable to that of Reb M
  overall off-taste compared with mogroside V: lower overall off-taste
  sweetness compared with mogroside V: sweeter
[2]; [12]
  Bitterness Aftertaste: 1.3
  Licorice Aftertaste: 3.0
  Lingering Sweetness: 4.4
  Overall Off-Taste: 4.1
[2]; [13]
  Bitterness: 1.6
  Delayed Sweetness: 4.1
  Global Flavor Intensity: 4.7
  Sweetness: 6.0
[2]; 600 ppm, in words
  bitterness compared with Reb M: overall lower bitterness
  global flavor intensity compared with Reb M: same
  sweetness compared with Reb M: same
[2]; in words
  bitterness aftertaste compared with mogroside V: lower bitterness aftertaste
  bitterness compared with mogroside V: lower bitterness
  global flavor intensity compared with mogroside V: higher global flavor intensity
  in mouth and aftertaste profile compared with Reb M: comparable to that of Reb M
  sweetness compared with mogroside V: higher sweetness
[3]; [14]
  delayed sweetness compared with Reb M: slightly higher
  in mouth and aftertaste profile compared with Reb M: comparable to that of Reb M
  sweetness compared with Reb M: slightly higher
  sweetness compared with mogroside V: higher sweetness
[3]; [15]
  Licorice Aftertaste: 2.8
  Lingering Sweetness: 4.4
  Mouth Coating: 2.9
  Overall Off-Taste: 3.6
[3]; [16]
  Delayed Sweetness: 3.7
  Sweetness: 5.9
[4]; [17]
  Licorice Aftertaste: 1.2
  Lingering Sweetness: 3.3
  Mouth Coating: 3.3
  Overall Off-Taste: 1.8
[4]; [18]
  Astringence: 0.7
  Delayed Sweetness: 2.2
  Fattiness: 3.5
  Sourness: 1.1
  Sweetness: 5.6
[4]; [19]
  Licorice Aftertaste: 1.7
  Lingering Sweetness: 4.8
  Mouth Coating: 0.5
  Overall Off-Taste: 2.4
[4]; [20]
  Astringence: 0.8
  Bitterness: 0.8
  Delayed Sweetness: 2.6
  Fattiness: 4.3
  Global Flavor Intensity: 4.6
  Sourness: 0.7
  Sweetness: 7.7
[4]; [21]
  lingering sweetness compared with Reb M: increased
  sweetness compared with Reb M: increased
[4]; in words
  bitterness compared with mogroside V: lower bitterness
  delayed sweetness compared with mogroside V: higher
  global flavor intensity compared with mogroside V: higher global flavor intensity
  sweetness compared with mogroside V: higher
[5]
  Sweet Linger: 4.429 (bc)
  Bitterness: 2.571 (a)
  Mouthfeel/Thickness: 3.429 (ab)
  Peak Sweetness: 6.571 (b)—
  Upfront Sweetness: 4.286 (b)
[6]
  Sweet Linger: 5.875 (a)
  Bitterness: 1.688 (a)
  Mouthfeel/Thickness: 5.000 (ab)
  Peak Sweetness: 7.375 (a)—
  Upfront Sweetness: 5.938 (ab)
[7]
  bitter aftertaste compared with stevia: lower bitter aftertaste
  licorice aftertaste compared with stevia: lower licorice aftertaste
  mouthfeel compared with stevia: better mouthfeel

## Isomogroside IVE
[5]
  Sweet Linger: 3.429 (c)
  Bitterness: 1.857 (a)
  Mouthfeel/Thickness: 2.714 (b)
  Peak Sweetness: 4.857 (c)
  Upfront Sweetness: 3.571 (b)
[6]
  Sweet Linger: 4.563 (b)
  Bitterness: 1.313 (ab)
  Mouthfeel/Thickness: 4.125 (b)
  Peak Sweetness: 5.938 (c)
  Upfront Sweetness: 5.125 (b)
[7]
  bitter aftertaste compared with stevia: lower bitter aftertaste
  licorice aftertaste compared with stevia: lower licorice aftertaste
  mouthfeel compared with stevia: better mouthfeel
